Assay results from ChEMBL document CHEMBL1152023, “Phenyl pyrrolidine analogues as potent nicotinic acetylcholine receptor (nAChR) ligands” (Bioorg Med Chem Lett, 1995).

Target: Neuronal acetylcholine receptor
Assay: Ability to displace [3H](-)-cytisine from nicotinic acetylcholine receptor (nAChR) in a whole rat brain preparation

Row | Compound | Ki [nM]
1 | COc1ccc(C2CCCN2C)cc1OC (configuration not stated) | 9700
2 | COc1cccc(C2CCCN2C)c1 (configuration not stated) | 597
3 | CN1CCCC1c1ccc(C(F)(F)F)cc1 (configuration not stated) | 931
4 | CN1CCCC1c1ccc(F)c(F)c1 (configuration not stated) | 420
5 | CN1CCCC1c1cccc(Cl)c1 (configuration not stated) | 227
6 | CN1CCCC1c1ccc(Cl)c(Cl)c1 (configuration not stated) | 68
7 | COc1ccc(C2CCCN2C)cc1 (configuration not stated) | 707
8 | Cc1cccc(C2CCCN2C)c1 (configuration not stated) | 719
9 | Clc1ccc(C2=NCCC2)cc1 | > 10000
10 | CN1CCCC1c1ccc2c(c1)OCO2 (configuration not stated) | 46
11 | CN1CCCC1c1ccc(Br)cc1 (configuration not stated) | 75
12 | COc1cc(C2CCCN2C)ccc1O (configuration not stated) | 8250
13 | Fc1cccc(C2=NCCC2)c1 | > 10000
14 | CN1CCCC1c1ccc(F)cc1 (configuration not stated) | 207
15 | COc1ccccc1C1CCCN1C (configuration not stated) | > 10000
16 | Cc1ccc(C2CCCN2C)cc1 (configuration not stated) | 1330
17 | Cc1ccccc1C1CCCN1C (configuration not stated) | 9000
18 | CN1CCCC1c1ccc(Cl)cc1 (configuration not stated) | 164
19 | CN1CCCC1c1ccc2c(c1)OCCO2 (configuration not stated) | 1220
20 | c1ccc(C2CCCN2)cc1 (configuration not stated) | 8700
21 | CN1CCCC1c1cccc(F)c1 (configuration not stated) | 399
22 | COc1cc2c(cc1O)CCN1CC=C3C=C[C@H](OC)C[C@]321 [ERYSODINE] | 5
